From the supplement of paper PMC10307832

Legend:
Assay in all cases: relative viability (nuclei count vs DMSO), 5 days (fraction); higher = more cells survive
[1] = compound: Cc1cnc(CNC(=O)c2c(=O)c3ccc(N4CCCN(C)CC4)nc3n3c2sc2ccccc23)cn1 [CX-5461]
In short: (§1)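 For viability, nuclei in each treated well were divided by nuclei in vehicle wells and the median across plates was taken. Lung cancer cell lines in 1536-well plates were pinned with five library-drug doses (not always all listed) spaced by √10, cultured 5 days without medium change, and imaged at 4× after Hoechst staining, with plates passing only at control CV below 25% and at least one doubling.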

[2] = compound: O=C(Nc1cc(C(F)(F)F)cc(C(F)(F)F)c1)c1cc(Cl)ccc1O [IMD-0354]
In short: as §1

[3] = compound: Cc1cnc(CNC(=O)c2c(=O)c3ccc(N4CCCN(C)CC4)nc3n3c2sc2ccccc23)cn1 [CX-5461] + COc1cc2c(Oc3ccc(NC(=O)C4(C(=O)Nc5ccc(F)cc5)CC4)cc3F)ccnc2cc1OCCCN1CCOCC1 [Foretinib] (partner 0.25 µM)
In short: (§2)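 Lung cancer cell lines in 1536-well plates were dosed by pin tool the day after seeding, either with one drug alone or with a fixed anchor-drug dose plus five library-drug doses (not always all listed) in √10 steps. After 5 days, cells were fixed and their nuclei stained in one step (final 0.05% Triton X-100, 1% formaldehyde, 1 ug/ml Hoechst), then counted on 4× images. Relative viability is the nuclei count in treated wells divided by that in vehicle wells. Values are medians of duplicate plates.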

[4] = compound: Cc1cnc(CNC(=O)c2c(=O)c3ccc(N4CCCN(C)CC4)nc3n3c2sc2ccccc23)cn1 [CX-5461] + CS(=O)(=O)CCNCc1ccc(-c2ccc3ncnc(Nc4ccc(OCc5cccc(F)c5)c(Cl)c4)c3c2)o1 [Lapatinib] (partner 2 µM)
In short: as §2

## UMC-11
[1]; 0.01 µM
  relative viability: 1.09
[1]; 0.03162 µM
  relative viability: 0.994
[1]; 0.1 µM
  relative viability: 0.928
[1]; 0.3162 µM
  relative viability: 0.909
[1]; 1 µM
  relative viability: 0.382
[2]; 0.04 µM
  relative viability: 1.1
[2]; 0.1265 µM
  relative viability: 1.04
[2]; 0.4 µM
  relative viability: 0.551
[2]; 1.265 µM
  relative viability: 0.224
[2]; 4 µM
  relative viability: 0.271
[3]; first compound 0.01 µM
  relative viability: 1.02
[3]; first compound 0.03162 µM
  relative viability: 1.08
[3]; first compound 0.1 µM
  relative viability: 0.906
[3]; first compound 0.3162 µM
  relative viability: 1.15
[3]; first compound 1 µM
  relative viability: 0.336
[4]; first compound 0.01 µM
  relative viability: 1.07
[4]; first compound 0.03162 µM
  relative viability: 1.01
[4]; first compound 0.1 µM
  relative viability: 0.855
[4]; first compound 0.3162 µM
  relative viability: 0.454
[4]; first compound 1 µM
  relative viability: 0.269
